IC50 data for 35 compounds are collected here from patent US20090312288A1 (TAKEDA PHARMACEUTICAL COMPANY LIMITED, priority 2008, published 2009).

pIC50: −log10 of the molar value.

This experiment deals with Aurora B/INCENP (Homo sapiens, UniProt Q96GD4). The experiment in a line: Determination of inhibition of AIK: Aurora B/INCENP direct fluorescence polarization (IMAP) assay. The experiment is classed as biochemical. Particulars: 10 uM ATP, 0.8 nM Aurora B/INCENP; values given as bins; read-out: IC50 of Exemplified Compounds Against AIK B. (In fluorescence polarisation assays a small probe gives low polarisation when free and higher when bound to something large.)
Sequence of Aurora B/INCENP (Q96GD4 whole entry): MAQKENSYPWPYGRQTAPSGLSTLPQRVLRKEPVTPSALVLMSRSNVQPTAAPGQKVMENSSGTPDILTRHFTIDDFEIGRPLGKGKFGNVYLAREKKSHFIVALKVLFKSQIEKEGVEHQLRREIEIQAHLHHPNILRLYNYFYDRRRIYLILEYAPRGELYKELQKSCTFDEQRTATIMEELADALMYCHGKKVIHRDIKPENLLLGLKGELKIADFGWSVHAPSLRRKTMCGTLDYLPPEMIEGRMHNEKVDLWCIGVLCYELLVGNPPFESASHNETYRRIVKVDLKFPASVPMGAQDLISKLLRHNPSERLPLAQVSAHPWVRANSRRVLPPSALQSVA
Sequence of Aurora B/INCENP (Q9NQS7 whole entry partner): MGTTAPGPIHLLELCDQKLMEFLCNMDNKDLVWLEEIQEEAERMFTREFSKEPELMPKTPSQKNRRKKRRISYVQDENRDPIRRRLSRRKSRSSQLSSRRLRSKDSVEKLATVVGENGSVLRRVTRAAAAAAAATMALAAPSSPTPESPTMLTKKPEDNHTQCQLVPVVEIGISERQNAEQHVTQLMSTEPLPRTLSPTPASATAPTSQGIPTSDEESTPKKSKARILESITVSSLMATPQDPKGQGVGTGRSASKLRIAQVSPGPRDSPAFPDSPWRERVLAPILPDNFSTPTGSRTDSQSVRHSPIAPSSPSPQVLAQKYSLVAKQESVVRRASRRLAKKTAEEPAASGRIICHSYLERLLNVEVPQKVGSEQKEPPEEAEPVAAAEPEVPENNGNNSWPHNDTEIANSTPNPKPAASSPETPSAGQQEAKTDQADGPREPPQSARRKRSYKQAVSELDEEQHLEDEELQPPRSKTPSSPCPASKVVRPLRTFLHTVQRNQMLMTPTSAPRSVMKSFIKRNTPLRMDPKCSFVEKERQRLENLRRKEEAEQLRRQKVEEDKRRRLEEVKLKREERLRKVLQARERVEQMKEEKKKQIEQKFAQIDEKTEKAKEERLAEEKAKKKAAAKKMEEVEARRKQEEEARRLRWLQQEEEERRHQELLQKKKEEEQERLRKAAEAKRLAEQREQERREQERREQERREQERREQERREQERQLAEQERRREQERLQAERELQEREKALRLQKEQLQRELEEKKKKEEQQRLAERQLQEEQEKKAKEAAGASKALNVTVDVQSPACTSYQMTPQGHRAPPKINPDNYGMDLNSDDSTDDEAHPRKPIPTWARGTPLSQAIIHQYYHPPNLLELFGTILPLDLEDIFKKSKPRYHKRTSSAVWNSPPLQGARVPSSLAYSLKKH
Broadly, the pIC50 is the IC50 on a negative log10 scale, so that one unit is a factor of ten. For the compound `CCS(=O)(=O)c1cccc(-c2ccc(OCCN3CCOCC3)c3[nH]c4ncc(Cl)cc4c23)c1` [Compound 255, 4-(2-(3-chloro-5-(3-(ethylsulfonyl)phenyl)-9H-pyrido[2,3-b]indol-8-yloxy)ethyl)morpholine], the pIC50 is under 7.89. In the case of `Cc1cnc2[nH]c3c(OCCCN(C)C)ccc(-c4cccc(NC(=O)C5CC5)c4)c3c2c1` [Compound 195, N-(3-(8-(3-(dimethylamino)propoxy)-3-methyl-9H-pyrido[2,3-b]indol-5-yl)phenyl)cyclopropanecarboxamide] it was under 7.89; in that of `CCS(=O)(=O)c1cccc(-c2cc(C(=O)NCCCN(C)C)cc3[nH]c4ncc(C)cc4c23)c1` [Compound 143, 5-(3-Ethanesulfonyl-phenyl)-3-methyl-9H-pyrido[2,3-b]indole-7-carboxylic acid (3-dimethylamino-propyl)-amide], under 7.89; in that of `Cc1cnc2[nH]c3c(OC[C@@H]4CNCCO4)ccc(-c4cccc(S(=O)(=O)C5CC5)c4)c3c2c1` [Compound 358, (S)-2-((5-(3-(cyclopropylsulfonyl)phenyl)-3-methyl-9H-pyrido[2,3-b]indol-8-yloxy)methyl)morpholine], over 8.40. In the case of `CCS(=O)(=O)c1cccc(-c2cnc(OC[C@@H](C)OC(=O)[C@H](C)N)c3[nH]c4ncc(C)cc4c23)c1` [Compound 65, L-Alanine-(R)-2-[5-(3-ethanesulfonyl-phenyl)-3-methyl-9H-dipyrido[2,3-b;4′,3′-d]pyrrol-8-yloxy]-1-methyl-ethyl ester] it was 7.89 to 8.07; in that of `CCS(=O)(=O)c1cccc(-c2ccc(OCCOC(=O)[C@H](C)N)c3[nH]c4ncc(C)cc4c23)c1` [Compound 226, (S)-2-(5-(3-(ethylsulfonyl)phenyl)-3-methyl-9H-pyrido[2,3-b]indol-8-yloxy)ethyl 2-aminopropanoate], 8.07 to 8.25; in that of `CCS(=O)(=O)c1cccc(-c2ccc(OCCCn3cncn3)c3[nH]c4ncc(C)cc4c23)c1` [Compound 409, 8-(3-(1H-1,2,4-triazol-1-yl)propoxy)-5-(3-(ethylsulfonyl)phenyl)-3-methyl-9H-pyrido[2,3-b]indole], under 7.89. In the case of `CCS(=O)(=O)c1cccc(-c2cnc(OCc3cncs3)c3[nH]c4ncc(C)cc4c23)c1` [Compound 60, 5-(3-Ethanesulfonyl-phenyl)-3-methyl-8-(thiazol-5-ylmethoxy)-9H-dipyrido[2,3-b;4′,3′-d]pyrrole] it was 8.26 to 8.40. With `CCS(=O)(=O)c1cccc(-c2cc(C(=O)N3CCC3)c(C)c3[nH]c4ncc(C)cc4c23)c1` [Compound 97, azetidin-1-yl(5-(3-(ethylsulfonyl)phenyl)-3,8-dimethyl-9H-pyrido[2,3-b]indol-7-yl)methanone], the pIC50 was under 7.89. In the case of `CS(=O)(=O)c1cccc(-c2cccc3[nH]c4ncccc4c23)c1` [Compound 8, 5-(3-(methylsulfonyl)phenyl)-9H-pyrido[2,3-b]indole] it was under 7.89. The same measure for `CCS(=O)(=O)c1cccc(-c2cc(C(=O)NC3CCN(C(C)C)CC3)c(C)c3[nH]c4ncc(C)cc4c23)c1` [Compound 104, 5-(3-(ethylsulfonyl)phenyl)-N-(1-isopropylpiperidin-4-yl)-3,8-dimethyl-9H-pyrido[2,3-b]indole-7-carboxamide]: 7.89 to 8.07; for `Cc1cnc2[nH]c3c(OC[C@H]4CN(C)CCO4)ccc(-c4cccc(S(=O)(=O)C5CC5)c4)c3c2c1` [Compound 371, (R)-2-((5-(3-(cyclopropylsulfonyl)phenyl)-3-methyl-9H-pyrido[2,3-b]indol-8-yloxy)methyl)-4-methylmorpholine]: over 8.40; for `CCS(=O)(=O)c1cccc(-c2ccc(O[C@@H](C)CCO)c3[nH]c4ncc(C)cc4c23)c1` [Compound 389, (S)-3-(5-(3-(ethylsulfonyl)phenyl)-3-methyl-9H-pyrido[2,3-b]indol-8-yloxy)butan-1-ol]: 8.26 to 8.40. The same measure for `CCS(=O)(=O)c1cccc(-c2cc(C(=O)NC[C@H](C)O)c(C)c3[nH]c4ncc(C)cc4c23)c1` [Compound 100, (S)-5-(3-(ethylsulfonyl)phenyl)-N-(2-hydroxypropyl)-3,8-dimethyl-9H-pyrido[2,3-b]indole-7-carboxamide]: 8.26 to 8.40; for `CCS(=O)(=O)c1cccc(-c2ccc(OCCCOP(=O)(O)O)c3[nH]c4ncc(C)cc4c23)c1` [Compound 350, 3-(5-(3-(ethylsulfonyl)phenyl)-3-methyl-9H-pyrido[2,3-b]indol-8-yloxy)propyl dihydrogen phosphate]: over 8.40. For `Cc1cnc2[nH]c3c(C)c(C(=O)NC4CCN(C)CC4)cc(-c4cccc(C(=O)NC5CC5)c4)c3c2c1` [Compound 228, 5-(3-(cyclopropylcarbamoyl)phenyl)-3,8-dimethyl-N-(1-methylpiperidin-4-yl)-9H-pyrido[2,3-b]indole-7-carboxamide], the pIC50 was under 7.89. For `CCOc1ccc(-c2cccc(S(=O)(=O)CC)c2)c2c1[nH]c1ncc(C)cc12` [Compound 171, 8-ethoxy-5-(3-(ethylsulfonyl)phenyl)-3-methyl-9H-pyrido[2,3-b]indole], the pIC50 was 8.07 to 8.25. Take `Cc1cnc2[nH]c3c(OC[C@@H]4CN(CCOP(=O)(O)O)CCO4)ccc(-c4cccc(S(=O)(=O)C5CC5)c4)c3c2c1` [Compound 373, (S)-2-(2-((5-(3-(cyclopropylsulfonyl)phenyl)-3-methyl-9H-pyrido[2,3-b]indol-8-yloxy)methyl)morpholino)ethyl dihydrogen phosphate]: the pIC50 was 8.26 to 8.40. In the case of `CCS(=O)(=O)c1cccc(-c2ccc(OCc3ccncc3)c3[nH]c4ncc(C)cc4c23)c1` [Compound 411, 5-(3-(ethylsulfonyl)phenyl)-3-methyl-8-(pyridin-4-ylmethoxy)-9H-pyrido[2,3-b]indole] it was 8.26 to 8.40. With `CCSc1ncc(-c2cccc(S(=O)(=O)CC)c2)c2c1[nH]c1ncc(C)cc12` [Compound 76], the negative logarithm of the IC50 (pIC50) was 8.07 to 8.25.

For `Cc1cnc2[nH]c3c(OCC4CCN(CCO)CC4)ccc(-c4cccc(S(=O)(=O)C5CC5)c4)c3c2c1` [Compound 345, 2-(4-((5-(3-(cyclopropylsulfonyl)phenyl)-3-methyl-9H-pyrido[2,3-b]indol-8-yloxy)methyl)piperidin-1-yl)ethanol], the pIC50 was over 8.40. In the case of `CCS(=O)(=O)c1cccc(-c2cnc(OC[C@@H](C)O)c3[nH]c4ncc(C)cc4c23)c1` [Compound 63, (R)-1-[5-(3-Ethanesulfonyl-phenyl)-3-methyl-9H-dipyrido[2,3-b;4′,3′-d]pyrrol-8-yloxy]-propan-2-ol] it was 8.26 to 8.40.

On to `CCS(=O)(=O)c1cccc(-c2cnc(OC[C@@H](C)O)c3[nH]c4ncc(Cl)cc4c23)c1` [Compound 73, (R)-1-[3-Chloro-5-(3-ethanesulfonyl-phenyl)-9H-dipyrido[2,3-b;4′,3′-d]pyrrol-8-yloxy]-propan-2-ol], for which the pIC50 is over 8.40. The same measure for `CCS(=O)(=O)c1cccc(-c2cc(C(=O)NCCO)c(C)c3[nH]c4ncc(C)cc4c23)c1` [Compound 101, 5-(3-(ethylsulfonyl)phenyl)-N-(2-hydroxyethyl)-3,8-dimethyl-9H-pyrido[2,3-b]indole-7-carboxamide]: 8.26 to 8.40; for `CCS(=O)(=O)c1cccc(-c2ccc(OCC3CCN(C)CC3)c3[nH]c4ncc(C#N)cc4c23)c1` [Compound 203, 5-(3-(ethylsulfonyl)phenyl)-8-((1-methylpiperidin-4-yl)methoxy)-9H-pyrido[2,3-b]indole-3-carbonitrile]: 8.07 to 8.25; for `COc1ccc(-c2cccc(NC(=O)C3CC3)c2)c2c1[nH]c1ncc(C)cc12` [Compound 163, N-(3-(8-methoxy-3-methyl-9H-pyrido[2,3-b]indol-5-yl)phenyl)cyclopropanecarboxamide]: 7.89 to 8.07. In the case of `Cc1cnc2[nH]c3c(C)ccc(SCc4ccccc4)c3c2c1` [Compound 25, 5-(benzylthio)-3,8-dimethyl-9H-pyrido[2,3-b]indole] it was under 7.89. Regarding `CCS(=O)(=O)c1cccc(-c2ccc(OCCCN3CCC(COP(=O)(O)O)CC3)c3[nH]c4ncc(C)cc4c23)c1` [Compound 449, (1-(3-(5-(3-(ethylsulfonyl)phenyl)-3-methyl-9H-pyrido[2,3-b]indol-8-yloxy)propyl)piperidin-4-yl)methyl dihydrogen phosphate], the negative-log IC50 (pIC50) was over 8.40.

Take `CCSc1cccc(-c2ccc(OCC3CCN(C)CC3)c3[nH]c4ncc(C)cc4c23)c1` [Compound 183]: the negative-log IC50 (pIC50) was under 7.89. As to `CCS(=O)(=O)c1cccc(-c2ccc(OCC3CCN(C)CC3)c3[nH]c4ncc(Cl)cc4c23)c1` [Compound 200, 3-chloro-5-(3-(ethylsulfonyl)phenyl)-8-((1-methylpiperidin-4-yl)methoxy)-9H-pyrido[2,3-b]indole], the pIC50 is 8.07 to 8.25. As for `CCS(=O)(=O)c1cccc(-c2ccc(OCCCn3cccc3)c3[nH]c4ncc(C)cc4c23)c1` [Compound 421, 8-(3-(1H-pyrrol-1-yl)propoxy)-5-(3-(ethylsulfonyl)phenyl)-3-methyl-9H-pyrido[2,3-b]indole], the pIC50 is under 7.89. With `CCS(=O)(=O)c1cccc(-c2cc(F)c(OCCCN(C)C)c3[nH]c4ncc(Cl)cc4c23)c1` [Compound 205, 3-(3-chloro-5-(3-(ethylsulfonyl)phenyl)-7-fluoro-9H-pyrido[2,3-b]indol-8-yloxy)-N,N-dimethylpropan-1-amine], the negative logarithm of the IC50 (pIC50) is over 8.40.

Consider `CCS(=O)(=O)c1cccc(-c2cnc(SC)c3[nH]c4ncc(C)cc4c23)c1` [Compound 75], for which the pIC50 is over 8.40. In the case of `Cc1cnc2[nH]c3c(OC[C@@H]4CN(C)CCO4)ccc(-c4cccc(S(=O)(=O)C5CC5)c4)c3c2c1` [Compound 370, (S)-2-((5-(3-(cyclopropylsulfonyl)phenyl)-3-methyl-9H-pyrido[2,3-b]indol-8-yloxy)methyl)-4-methylmorpholine] it was 8.26 to 8.40; in that of `CCS(=O)(=O)c1cccc(-c2cc(C(=O)N(C)CCN(C)C)c(C)c3[nH]c4ncc(C)cc4c23)c1` [Compound 91, N-(2-(dimethylamino)ethyl)-N-methyl-5-(3-(ethylsulfonyl)phenyl)-3,8-dimethyl-9H-pyrido[2,3-b]indole-7-carboxamide], under 7.89.
